Results as given in ChEMBL document CHEMBL1127434, “Discovery of nanomolar ligands for 7-transmembrane G-protein-coupled receptors from a diverse N-(substituted)glycine peptoid library” (J Med Chem, 1994).

How the values were obtained:
Mu-type opioid receptor = Mu-type opioid receptor (Rattus norvegicus, UniProt P33535); experiment: Compound was evaluated for binding affinity towards mu-specific opiate receptor from rat brain membrane using [3H]DAMGO
[1] = molecular target: T1, Adrenergic receptor alpha-1 (Rattus norvegicus, UniProt P15823+P23944+P43140); experiment: Compound was evaluated for its binding affinity against alfa1 adrenergic receptors.; assay type: protein assay
T1 sequence (P15823 whole entry): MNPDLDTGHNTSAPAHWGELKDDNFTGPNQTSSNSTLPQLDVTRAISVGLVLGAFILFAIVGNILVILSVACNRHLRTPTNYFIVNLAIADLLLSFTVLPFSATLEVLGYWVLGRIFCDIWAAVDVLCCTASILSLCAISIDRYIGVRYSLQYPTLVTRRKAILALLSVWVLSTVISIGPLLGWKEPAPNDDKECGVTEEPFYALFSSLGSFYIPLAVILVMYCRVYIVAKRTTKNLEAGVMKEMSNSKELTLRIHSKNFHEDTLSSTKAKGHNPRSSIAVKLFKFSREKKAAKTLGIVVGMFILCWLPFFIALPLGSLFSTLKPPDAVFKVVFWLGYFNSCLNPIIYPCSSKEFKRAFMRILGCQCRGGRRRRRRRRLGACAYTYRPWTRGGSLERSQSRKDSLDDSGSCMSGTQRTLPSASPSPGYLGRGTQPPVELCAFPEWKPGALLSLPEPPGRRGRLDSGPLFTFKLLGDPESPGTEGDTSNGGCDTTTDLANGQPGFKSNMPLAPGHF
T1 sequence (P23944 whole entry): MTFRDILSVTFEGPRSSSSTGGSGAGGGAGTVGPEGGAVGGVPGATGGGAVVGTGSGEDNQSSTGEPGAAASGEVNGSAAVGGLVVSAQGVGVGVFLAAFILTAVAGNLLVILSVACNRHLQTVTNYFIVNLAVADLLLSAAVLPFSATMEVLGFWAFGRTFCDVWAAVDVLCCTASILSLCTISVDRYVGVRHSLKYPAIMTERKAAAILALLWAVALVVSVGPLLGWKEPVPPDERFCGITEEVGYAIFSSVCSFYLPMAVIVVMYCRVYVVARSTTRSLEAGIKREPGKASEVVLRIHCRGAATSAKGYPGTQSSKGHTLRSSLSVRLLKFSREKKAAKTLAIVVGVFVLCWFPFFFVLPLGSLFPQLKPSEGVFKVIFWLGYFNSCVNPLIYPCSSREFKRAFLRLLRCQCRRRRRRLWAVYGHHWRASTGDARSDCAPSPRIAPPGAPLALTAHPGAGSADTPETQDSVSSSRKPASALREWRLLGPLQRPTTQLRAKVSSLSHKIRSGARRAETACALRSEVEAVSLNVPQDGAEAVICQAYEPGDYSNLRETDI
T1 sequence (P43140 whole entry): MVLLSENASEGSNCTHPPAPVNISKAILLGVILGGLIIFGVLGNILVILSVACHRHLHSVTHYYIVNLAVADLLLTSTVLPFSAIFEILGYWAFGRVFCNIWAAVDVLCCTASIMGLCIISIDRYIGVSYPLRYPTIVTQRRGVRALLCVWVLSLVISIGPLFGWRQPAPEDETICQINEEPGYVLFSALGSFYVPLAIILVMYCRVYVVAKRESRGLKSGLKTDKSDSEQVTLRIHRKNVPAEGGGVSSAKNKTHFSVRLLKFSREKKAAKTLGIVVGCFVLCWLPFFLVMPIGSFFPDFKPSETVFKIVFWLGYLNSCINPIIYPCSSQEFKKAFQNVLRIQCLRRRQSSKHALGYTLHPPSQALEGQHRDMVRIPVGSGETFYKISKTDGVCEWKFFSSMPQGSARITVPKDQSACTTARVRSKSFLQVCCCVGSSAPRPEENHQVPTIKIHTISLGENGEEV

[2] = molecular target: T1, Adrenergic receptor alpha-1
Description: Compound was evaluated for binding affinity towards alpha-1 adrenergic receptors from combinatorial peptoid library

[3] = molecular target: T1, Adrenergic receptor alpha-1; experiment: Compound was evaluated for its binding affinity against alpha-1 adrenergic receptors; assay type: protein assay

Chain of Mu-type opioid receptor (P33535 whole entry): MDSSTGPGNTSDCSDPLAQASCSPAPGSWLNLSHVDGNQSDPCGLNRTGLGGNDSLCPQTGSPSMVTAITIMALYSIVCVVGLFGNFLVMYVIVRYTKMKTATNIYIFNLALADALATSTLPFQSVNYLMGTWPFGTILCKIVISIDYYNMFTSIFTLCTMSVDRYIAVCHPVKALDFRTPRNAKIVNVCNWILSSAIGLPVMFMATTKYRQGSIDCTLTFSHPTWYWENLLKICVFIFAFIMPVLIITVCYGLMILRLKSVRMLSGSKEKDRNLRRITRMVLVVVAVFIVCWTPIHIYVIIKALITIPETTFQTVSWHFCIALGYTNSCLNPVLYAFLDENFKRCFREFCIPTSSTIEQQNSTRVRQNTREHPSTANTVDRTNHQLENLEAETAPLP

COc1ccc(CN(CC(=O)N(CCc2ccc(O)cc2)CC(N)=O)C(=O)CNCC(c2ccccc2)c2ccccc2)cc1OC
Ki (Mu-type opioid receptor): 0.031 µM

CCCCCN(CC(=O)N(CCc1ccc(O)cc1)CC(N)=O)C(=O)CNCC(c1ccccc1)c1ccccc1
Ki (Mu-type opioid receptor): 0.046 µM

NC(=O)CN(CCc1ccccc1)C(=O)CN(C(=O)CNCCc1ccc(O)cc1)c1ccc(-c2ccccc2)cc1
Ki [1]: 0.005 µM

NC(=O)CN(CCc1ccc(O)cc1)C(=O)CN(Cc1ccc2c(c1)OCO2)C(=O)CNCC(c1ccccc1)c1ccccc1
Ki (Mu-type opioid receptor): 0.006 µM

NC(=O)CN(CCc1ccccc1)C(=O)CN(C(=O)CNCCc1ccccc1)c1ccc(-c2ccccc2)cc1
Ki [2]: 0.004 µM

NC(=O)CN(C(=O)CN(C(=O)CNCCc1ccc(O)cc1)c1ccc(-c2ccccc2)cc1)c1ccc(-c2ccccc2)cc1
Ki [3]: 0.31 µM

NC(=O)CN(CCc1ccccc1)C(=O)CN(C(=O)CNCCc1ccc(O)cc1)c1ccc(Oc2ccccc2)cc1
Ki [3]: 0.14 µM
